Results from EP2949653A1, “ISOXAZOLE DERIVATIVES AS LEUKOTRIENE BIOSYNTHESIS INHIBITORS” (Banoglu, Erden, priority 2014, dated 2015).

Tests used:
[1] = test system: 5-LO mediated product formation; test: 5-LO mediated product formation in intact neutrophils stimulated with A23187 (cell-based); design: species or system human; conditions: for IC50: Neutrophil, intact human neutrophils stimulated with 2.5 µM A23187, mean ± SE, n = 3-4, read-out: Inhibition of purified 5-LO activity IC50 (µM) cell based; for activity at 1 µM / activity at 10 µM: PMNL, human neutrophils, 2.5 µM A23187, means ± SE, n = 3-6; for activity at 1 µM: remaining activity at 1 µM inhibitor, read-out: 5-LO mediated product formation in intact neutrophils (PMNL) (% of control) at 1 µM; for activity at 10 µM: remaining activity at 10 µM inhibitor, read-out: 5-LO mediated product formation in intact neutrophils (PMNL) (% of control) at 10 µM
Protocol: (§1) Cell based and cell-free assays carried out in biological studies, immunofluorescence microscopy analysis and zymosan-induced peritonitis in mice are performed as described hereinabove (Pegola, C. and et al., British J. Pharmacology, 2014, D01:10.1111/bph.12625). In the cell based assays (intact neutrophils or monocytes), 5-LO mediated product formation is started, after pre-incubation with test compounds (or control DMSO) for 15 min. at 37 °C, with addition of Ca-ionophore A23187 (2.5 µM) to the fresh 5 x 10^6 neutrophils or monocytes suspended in 1 ml of PGC buffer (phosphate buffered saline (PBS) solution containing 1 mg ml^-1 glucose and 1mM CaCl2, pH 7.4). After the incubation for 10 min. at 37 °C, the reaction is ended with addition of 1 ml of methanol, and 30 µL 1 N HCl, 200 ng prostaglandin B1 and 500 µL PBS are added to the mixture. In cell-free assays (isolated 5-LO and cell homogenates), human recombinant 5-LO protein or 40,000g supernatant is added to 1 ml of 5-LO reaction mixture (PBS, pH 7.4, 1 mM EDTA, 1 mM ATP), and then incubated with test compounds (or control DMSO) for 10 min. at 4°C, heated to 37 °C and 2 mM CaCl2 as well as AA at certain concentrations are added. The reaction is ended as described for the cell-based assays. Resulting 5-LO mediated products are extracted and analysed by the known method of high pressure liquid chromatography (HPLC) (Pergola, C. Proc Natl. Acad. Sci. U.S.A. 2008, 105, 19881). 5-LO mediated product formation (LTB4 and all trans isomers, and 5 (S)-hydro(pero)xy-6-trans-8, 11, 14-cis-eicosatetraenoic acid, 5-H(p)ETE) is expressed as ng per 10^6 cell. Cysteinyl-LTs have not been analyzed because that the amount of C4, D4 and E4 and LTB4 oxidation products are below the detection limit.
(§2) Compounds were tested in intact human neutrophils stimulated with 2.5 µM A23187 under cell based conditions and on purified 5-LO under cell free conditions. ^aData are given as remaining activity as a percentage of control (100%) at 10 µM or 1 µM inhibitor concentrations (means ± SE, n = 3-6).
Compound 9hj inhibited 5-LO mediated product formation with IC50 of 60 nM in human neutrophils. Neutrophils are stimulated with Ca-ionophore A23187 (2.5 µM), without the addition of exogenous arachidonic acid (AA), after pre-incubation with 9hj or vehicle (0.1 % DMSO). 100% controls correspond to 275.7 ng mL^-1 of 5-LO mediated products (Figure 1).
100% controls correspond to 328.97 ng mL^-1 of 5-LO mediated products.

purified 5-LO [2] = target: T1, purified 5-LO (Homo sapiens, UniProt P09917); test: Purified / human recombinant 5-LO activity (cell-free); format: biochemical; conditions: purified 5-LO under cell free conditions; mean ± SE, n = 3-4; read-out: Inhibition of purified 5-LO activity IC50 (µM) cell-free
T1 sequence (P09917 1-674): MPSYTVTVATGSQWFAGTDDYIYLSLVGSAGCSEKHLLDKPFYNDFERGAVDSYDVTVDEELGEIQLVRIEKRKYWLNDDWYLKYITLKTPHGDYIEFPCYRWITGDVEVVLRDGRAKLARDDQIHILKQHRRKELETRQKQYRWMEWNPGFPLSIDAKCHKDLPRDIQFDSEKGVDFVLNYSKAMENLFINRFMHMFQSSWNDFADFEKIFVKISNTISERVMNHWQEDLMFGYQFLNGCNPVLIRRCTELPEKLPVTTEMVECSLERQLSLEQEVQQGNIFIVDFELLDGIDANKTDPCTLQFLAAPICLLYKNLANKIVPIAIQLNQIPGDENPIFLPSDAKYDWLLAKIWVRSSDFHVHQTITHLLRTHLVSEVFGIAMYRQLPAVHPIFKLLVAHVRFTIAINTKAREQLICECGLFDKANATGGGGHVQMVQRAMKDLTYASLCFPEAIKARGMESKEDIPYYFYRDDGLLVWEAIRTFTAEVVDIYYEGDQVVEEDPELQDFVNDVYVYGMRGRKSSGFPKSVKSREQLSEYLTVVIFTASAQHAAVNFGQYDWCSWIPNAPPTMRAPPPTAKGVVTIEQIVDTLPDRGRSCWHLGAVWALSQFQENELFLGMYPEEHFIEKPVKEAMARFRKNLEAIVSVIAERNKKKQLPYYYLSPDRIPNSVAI
Protocol: as §1, §2
9hj was added 15 min before addition of 2 mM Ca^2+ plus 3 µM, 10 µM and 30 µM AA. 100% controls correspond to 200.35 ng mL^-1 for 3 µM AA, 514.36 ng mL^-1 for 10 µM AA and 537.73 ng mL^-1 for 30 µM AA.

purified 5-LO [3] = target: T1, purified 5-LO; test: as above; format: biochemical; conditions: remaining 5-LO activity (percentage of uninhibited control) at 30 µM test compound

Row | Structure (SMILES) | IC50 [1] | activity at 1 µM [1] | activity at 10 µM [1] | IC50 (purified 5-LO [2]) | remaining activity at 30 µM (purified 5-LO [3])
1 | Cc1ccccc1COc1ccc(-c2onc(C(=O)O)c2-c2ccc(Cl)cc2)cc1 [Compound 9aj, 4-(4-Chlorophenyl)-5-(4-((2-methylbenzyl)oxy)phenyl)isoxazole-3-carboxylic acid] | 1.7 ± 0.47 µM | 74.5 ± 8.6% | 13.1 ± 3.9% | 0.48 ± 0.03 µM | –
2 | O=C(O)c1noc(-c2ccc(OCc3ccccn3)cc2)c1-c1ccc(Cl)cc1 [Compound 9gj, 4-(4-Chlorophenyl)-5-(4-(pyridin-2-ylmethoxy)phenyl)isoxazole-3-carboxylic acid] | 4.09 ± 0.12 µM | 82.1 ± 15.2% | 21.3 ± 8.34% | 7.39 ± 2.45 µM | –
3 | Cc1cc(OCc2ccccc2Cl)ccc1-c1onc(C(=O)O)c1-c1ccc(Cl)cc1 [Compound 9ek, 5-(4-((2-Chlorobenzyl)oxy)-2-methylphenyl)-4-(4-chlorophenyl)isoxazole-3-carboxylic acid] | 1.45 ± 0.09 µM | 54.9 ± 6.46% | 2.86 ± 2.59% | > 30 µM | 51%
4 | Cc1cc(OCc2ccc3ccccc3n2)ccc1-c1onc(C(=O)O)c1-c1ccc(Cl)cc1 [Compound 9hk, 4-(4-Chlorophenyl)-5-(2-methyl-4-(quinolin-2-ylmethoxy)phenyl)isoxazole-3-carboxylic acid] | 9.07 ± 1.98 µM | 69.1 ± 5.53% | 44.2 ± 15.7% | > 30 µM | 75%
5 | Cc1cc(OCc2cccc(C#N)c2)ccc1-c1onc(C(=O)O)c1-c1ccc(Cl)cc1 [Compound 9dk, 4-(4-Chlorophenyl)-5-(4-((3-cyanobenzyl)oxy)-2-methylphenyl)isoxazole-3-carboxylic acid] | 2.36 ± 0.32 µM | 77.4 ± 13.2% | 0.42 ± 0.21% | 5.01 ± 1.38 µM | –
6 | CCOC(=O)c1noc(-c2ccc(OCc3ccccc3C)cc2)c1-c1ccc(Cl)cc1 [Compound 7aj, Ethyl 4-(4-chlorophenyl)-5-(4-((2-methylbenzyl)oxy)phenyl)isoxazole-3-carboxylate] | – | 85.2 ± 0.7% | 71.9 ± 10.3% | – | –
7 | N#Cc1cccc(COc2ccc(-c3onc(C(=O)O)c3-c3ccc(Cl)cc3)cc2)c1 [Compound 9dj, 4-(4-Chlorophenyl)-5-(4-((3-cyanobenzyl)oxy)phenyl)isoxazole-3-carboxylic acid] | 4.13 ± 0.33 µM | 70 ± 9.14% | 6.91 ± 3.92% | 16.3 ± 5.95 µM | –
8 | O=C(O)c1noc(-c2ccc(OCc3ccccc3C(F)(F)F)cc2)c1-c1ccc(Cl)cc1 [Compound 9fj, 4-(4-Chlorophenyl)-5-(4-((2-(trifluoromethyl)benzyl)oxy)phenyl)isoxazole-3-carboxylic acid] | 0.77 ± 0.19 µM | 52.8 ± 5.94% | 5.5 ± 2.21% | 6.04 ± 0.72 µM | –
9 | Cc1ccc(COc2ccc(-c3onc(C(=O)O)c3-c3ccc(Cl)cc3)c(C)c2)cc1 [Compound 9ck, 4-(4-Chlorophenyl)-5-(2-methyl-4-((4-methylbenzyl)oxy)phenyl)isoxazole-3-carboxylic acid] | 1.2 ± 0.11 µM | 51 ± 6.68% | 2.26 ± 1.86% | > 30 µM | 53%
10 | O=C(O)c1noc(-c2ccc(OCc3cccc(F)c3)cc2)c1-c1ccc(Cl)cc1 [Compound 9bj, 4-(4-Chlorophenyl)-5-(4-((3-fluorobenzyl)oxy)phenyl)isoxazole-3-carboxylic acid] | 1.29 ± 0.61 µM | 52.3 ± 8.3% | 19.6 ± 9.5% | 0.38 ± 0.04 µM | –
11 | O=C(O)c1noc(-c2ccc(OCc3ccccc3Cl)cc2)c1-c1ccc(Cl)cc1 [Compound 9ej, 5-(4-((2-chlorobenzyl)oxy)phenyl)-4-(4-chlorophenyl)isoxazole-3-carboxylic acid] | 1.2 ± 0.23 µM | 65.7 ± 5.9% | 5.1 ± 1.46% | 6.11 ± 0.9 µM | –
12 | Cc1ccc(COc2ccc(-c3onc(C(=O)O)c3-c3ccc(Cl)cc3)cc2)cc1 [Compound 9cj, 4-(4-Chlorophenyl)-5-(4-((4-methylbenzyl)oxy)phenyl)isoxazole-3-carboxylic acid] | 1.4 ± 0.09 µM | 55.8 ± 4.31% | 15.7 ± 4.53% | 5.94 ± 0.36 µM | –
13 | CCOC(=O)c1noc(-c2ccc(OCc3ccc(C)cc3)cc2)c1-c1ccc(Cl)cc1 [Compound 7cj, Ethyl 4-(4-chlorophenyl)-5-(4-((4-methylbenzyl)oxy)phenyl)isoxazole-3-carboxylate] | – | 78.3 ± 16.2% | 61.4 ± 12.4% | – | –
14 | Cc1cc(OCc2cccc(F)c2)ccc1-c1onc(C(=O)O)c1-c1cccc(Cl)c1 [Compound 10bk, 4-(3-Chlorophenyl)-5-(4-((3-fluorobenzyl)oxy)-2-methylphenyl)isoxazole-3-carboxylic acid] | 0.82 ± 0.19 µM | 48.6 ± 7.9% | 9.8 ± 3.6% | 1.12 ± 0.14 µM | –
15 | CCOC(=O)c1noc(-c2ccc(OCc3cccc(F)c3)cc2)c1-c1ccc(Cl)cc1 [Compound 7bj, Ethyl 4-(4-chlorophenyl)-5-(4-((3-fluorobenzyl)oxy)phenyl)isoxazole-3-carboxylate] | – | 66.1 ± 14.3% | 55.3 ± 12.1% | – | –
16 | CCOC(=O)c1noc(-c2ccc(OCc3cccc(F)c3)cc2)c1-c1cccc(Cl)c1 [Compound 8bj, Ethyl 4-(3-chlorophenyl)-5-(4-((3-fluorobenzyl)oxy)phenyl)isoxazole-3-carboxylate] | – | 90.6 ± 11.5% | 80.8 ± 11.8% | – | –
17 | Cc1ccccc1COc1ccc(-c2onc(C(=O)O)c2-c2cccc(Cl)c2)cc1 [Compound 10aj, 4-(3-Chlorophenyl)-5-(4-((2-methylbenzyl)oxy)phenyl)isoxazole-3-carboxylic acid] | 2.08 ± 0.33 µM | 84.5 ± 9.1% | 0.7 ± 0.7% | 0.5 ± 0.03 µM | –
18 | O=C(O)c1noc(-c2ccc(OCc3cccc(F)c3)cc2)c1-c1cccc(Cl)c1 [Compound 10bj, 4-(3-Chlorophenyl)-5-(4-((3-fluorobenzyl)oxy)phenyl)isoxazole-3-carboxylic acid] | 1.64 ± 0.11 µM | 66.7 ± 8.5% | 8.4 ± 5.1% | 0.38 ± 0.03 µM | –
19 | CCOC(=O)c1noc(-c2ccc(OCc3ccccc3C)cc2)c1-c1cccc(Cl)c1 [Compound 8aj, Ethyl 4-(3-chlorophenyl)-5-(4-((2-methylbenzyl)oxy)phenyl)isoxazole-3-carboxylate] | – | 88 ± 10.2% | 83.4 ± 16.2% | – | –
